The target in the assay is T1, plant Photosystem II (PSII), D1 protein QB site, pea (Lathyrus oleraceus, UniProt P06585).
T1 construct: gene psbA; native D1 within whole PSII complex (D1/D2 reaction centre) in isolated thylakoid membranes from 4-week-old pea leaves; no tag, not purified further
The assay is described as follows: DPIP photoreduction (Hill reaction, […] nm) in isolated thylakoid membranes, Langmuir isotherm fit. Format: biochemical. Particulars: pH 7.2, 100 µM DPIP, 5 mM NH4Cl, 5 mM MgCl2, 15 µg/mL Chl, white light 500 µmol photons m^-2 s^-1, 10 min dark preincubation at room temperature, competitive with plastoquinone, read-out: DPIP Photoreduction / I50.
Take `CC(C)N1C(=O)c2ccccc2NS1(=O)=O` [Bentazon]: the IC50 was 6160 nM.

`CN(C)C(=O)Nc1ccc(Cl)c(Cl)c1` [Diuron]: the IC50 was 71.8 nM.

As for `CSc1nnc(C(C)(C)C)c(=O)n1N` [Metribuzin], the IC50 was found to be 156 nM.

As for `CCNc1nc(Cl)nc(NC(C)(C)C)n1` [Terbuthylazine], the IC50 is 110 nM.

Source of the values: paper PMC8398153, “Binding Properties of Photosynthetic Herbicides with the QB Site of the D1 Protein in Plant Photosystem II: A Combined Functional and Molecular Docking Study” (Plants, 2021).
